In PubChem BioAssay (NCI):
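Protocol summary: plate cells (96-well), add compound at 5 concentrations, incubate 48 h, interpolate endpoints linearly. Abbreviation: GI50, concentration required for 50% inhibition of growth. TGI: concentration producing complete growth inhibition.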

Experiments:
Assay in all cases: DTP human tumour cell line panel, 48 h
[1] = test system: MALME-3M melanoma
[2] = test system: UACC-62 melanoma
[3] = test system: HT29 colon
[4] = test system: MDA-MB-231 breast
[5] = test system: SF-295 CNS
[6] = test system: HOP-62 NSCLC
[7] = test system: CAKI-1 renal
[8] = test system: NCI-H460 lung
[9] = test system: UO-31 renal
[10] = test system: SNB-75 CNS
[11] = test system: NCI-H522 lung
[12] = test system: NCI-H226 lung
[13] = test system: TK-10 renal
[14] = test system: IGROV1 ovarian
[15] = test system: RXF 393 renal
[16] = test system: HCT-116 colon
[17] = test system: SF-539 CNS
[18] = test system: DU-145 prostate
[19] = test system: HOP-92 NSCLC
[20] = test system: HS 578T breast
[21] = test system: T-47D breast
[22] = test system: M14 melanoma
[23] = test system: SN12C renal
[24] = test system: LOX IMVI melanoma
[25] = test system: ACHN renal
[26] = test system: SK-OV-3 ovarian
[27] = test system: SK-MEL-28 melanoma
[28] = test system: K-562 leukemia
[29] = test system: SK-MEL-2 melanoma
[30] = test system: SW-620 colon
[31] = test system: HCT-15 colon
[32] = test system: PC-3 prostate
[33] = test system: HCC-2998 colon
[34] = test system: COLO 205 colon
[35] = test system: A549 NSCLC
[36] = test system: OVCAR-3 ovarian
[37] = test system: MDA-MB-435
[38] = test system: KM12 colon
[39] = test system: A498 renal
[40] = test system: OVCAR-8 ovarian
[41] = test system: BT-549 breast
[42] = test system: OVCAR-5 ovarian
[43] = test system: HL-60(TB) leukemia
[44] = test system: NCI/ADR-RES ovarian
[45] = test system: MCF7 breast
[46] = test system: 786-0 renal
[47] = test system: SK-MEL-5 melanoma
[48] = test system: EKVX NSCLC
[49] = test system: UACC-257 melanoma
[50] = test system: MOLT-4 leukemia
[51] = test system: CCRF-CEM leukemia
[52] = test system: RPMI-8226 leukemia
[53] = test system: SNB-19 CNS
[54] = test system: OVCAR-4 ovarian
[55] = test system: U251 CNS
[56] = test system: SF-268 CNS

For `CN(C)c1ccc(C(Cc2ccc3ccccc3n2)Cc2ccc3ccccc3n2)cc1`, the GI50 [1] was 1.96 µM, the TGI [1] was greater than 100 µM and the GI50 [2] was 3.77 µM. For the same compound, the TGI [2] was greater than 100 µM, the GI50 [3] was 3.83 µM and the TGI [3] was greater than 100 µM. The GI50 [4] was 5.41 µM, the TGI [4] was greater than 100 µM and the GI50 [5] was 3.26 µM. It also gave a TGI [5] greater than 100 µM, a GI50 [6] of 5.84 µM and a TGI [6] greater than 100 µM. For the same compound, the GI50 [7] was 2.2 µM, the TGI [7] was greater than 100 µM and the GI50 [8] was 3.14 µM. The TGI [8] was greater than 100 µM, the GI50 [9] was 1.96 µM and the TGI [9] was greater than 100 µM. It also gave a GI50 [10] of 3.24 µM, a TGI [10] greater than 100 µM and a GI50 [11] of 3.4 µM. For the same compound, the TGI [11] was greater than 100 µM, the GI50 [12] was 4.4 µM and the TGI [12] was greater than 100 µM. The GI50 [13] was 4.93 µM, the TGI [13] was greater than 100 µM and the GI50 [14] was 2.57 µM. The TGI [14] was greater than 100 µM, the GI50 [15] was 3.48 µM and the TGI [15] was 9.11 µM. For the same compound, the GI50 [16] was 2.64 µM, the TGI [16] was greater than 100 µM and the GI50 [17] was 4.74 µM. The TGI [17] was greater than 100 µM, the GI50 [18] was greater than 100 µM and the TGI [18] was greater than 100 µM. It also gave a GI50 [19] of 2.19 µM, a TGI [19] of 6.91 µM and a GI50 [20] of 6.22 µM. The TGI [20] was greater than 100 µM, the GI50 [21] was 1.71 µM and the TGI [21] was greater than 100 µM.

`N#Cc1c(N)nc(N2CCOCC2)c(C#N)c1-c1cccnc1` was tested, and the GI50 [1] was 37.2 µM, the TGI [1] was 91.4 µM and the GI50 [2] was 43.4 µM. For the same compound, the TGI [2] was greater than 100 µM, the GI50 [22] was 71.2 µM and the TGI [22] was greater than 100 µM. The GI50 [23] was 97.2 µM, the TGI [23] was greater than 100 µM and the GI50 [3] was greater than 100 µM. The TGI [3] was greater than 100 µM, the GI50 [24] was 63.1 µM and the TGI [24] was greater than 100 µM. For the same compound, the GI50 [25] was 48.7 µM, the TGI [25] was greater than 100 µM and the GI50 [4] was 27.6 µM. It also gave a TGI [4] greater than 100 µM, a GI50 [5] of 44.4 µM and a TGI [5] greater than 100 µM. It also gave a GI50 [6] of 24.9 µM, a TGI [6] greater than 100 µM and a GI50 [26] of 47.8 µM. For the same compound, the TGI [26] was 99.6 µM, the GI50 [27] was greater than 100 µM and the TGI [27] was greater than 100 µM. The GI50 [7] was 32.6 µM, the TGI [7] was 95 µM and the GI50 [28] was 71.7 µM. The TGI [28] was greater than 100 µM, the GI50 [29] was greater than 100 µM and the TGI [29] was greater than 100 µM. It also gave a GI50 [30] greater than 100 µM, a TGI [30] greater than 100 µM and a GI50 [31] greater than 100 µM. For the same compound, the TGI [31] was greater than 100 µM, the GI50 [32] was 33.5 µM and the TGI [32] was greater than 100 µM. For the same compound, the GI50 [8] was greater than 100 µM, the TGI [8] was greater than 100 µM and the GI50 [33] was 8.8 µM. The TGI [33] was 49.4 µM, the GI50 [34] was 36 µM and the TGI [34] was 96.2 µM. The GI50 [35] was greater than 100 µM, the TGI [35] was greater than 100 µM and the GI50 [36] was 26.6 µM. For the same compound, the TGI [36] was 89.7 µM, the GI50 [37] was greater than 100 µM and the TGI [37] was greater than 100 µM. The GI50 [38] was greater than 100 µM, the TGI [38] was greater than 100 µM and the GI50 [39] was 27.5 µM. It also gave a TGI [39] of 80.8 µM, a GI50 [40] greater than 100 µM and a TGI [40] greater than 100 µM. It also gave a GI50 [41] greater than 100 µM, a TGI [41] greater than 100 µM and a GI50 [9] of 24.1 µM. The TGI [9] was greater than 100 µM, the GI50 [42] was 25.7 µM and the TGI [42] was 73.5 µM. It also gave a GI50 [43] of 95.6 µM, a TGI [43] greater than 100 µM and a GI50 [44] of 81.7 µM. For the same compound, the TGI [44] was greater than 100 µM, the GI50 [45] was 55.8 µM and the TGI [45] was greater than 100 µM. For the same compound, the GI50 [10] was 11.1 µM, the TGI [10] was 43.6 µM and the GI50 [11] was 22.3 µM. The TGI [11] was 81.7 µM, the GI50 [46] was greater than 100 µM and the TGI [46] was greater than 100 µM. The GI50 [12] was 81.8 µM, the TGI [12] was greater than 100 µM and the GI50 [13] was greater than 100 µM. For the same compound, the TGI [13] was greater than 100 µM, the GI50 [47] was greater than 100 µM and the TGI [47] was greater than 100 µM. The GI50 [48] was 83.8 µM, the TGI [48] was greater than 100 µM and the GI50 [49] was 93.1 µM. The TGI [49] was greater than 100 µM, the GI50 [50] was greater than 100 µM and the TGI [50] was greater than 100 µM. For the same compound, the GI50 [14] was 17.2 µM, the TGI [14] was 44.8 µM and the GI50 [15] was greater than 100 µM. For the same compound, the TGI [15] was greater than 100 µM, the GI50 [16] was 86.6 µM and the TGI [16] was greater than 100 µM. The GI50 [17] was greater than 100 µM, the TGI [17] was greater than 100 µM and the GI50 [18] was greater than 100 µM. The TGI [18] was greater than 100 µM, the GI50 [19] was 24.8 µM and the TGI [19] was greater than 100 µM. The GI50 [51] was 39.3 µM, the TGI [51] was greater than 100 µM and the GI50 [52] was 45.5 µM. The TGI [52] was greater than 100 µM, the GI50 [53] was 77.2 µM and the TGI [53] was greater than 100 µM. For the same compound, the GI50 [54] was 44.4 µM, the TGI [54] was greater than 100 µM and the GI50 [20] was 66.1 µM. The TGI [20] was greater than 100 µM, the GI50 [21] was 34 µM and the TGI [21] was 66.7 µM. For the same compound, the GI50 [55] was greater than 100 µM, the TGI [55] was greater than 100 µM and the GI50 [56] was greater than 100 µM. For the same compound, the TGI [56] was greater than 100 µM.

Compound `Nc1nc(Cl)c(N=Nc2ccc(Cl)cc2)c(NCC2(CO)CC2)n1` has a GI50 [25] of 0.411 µM, a GI50 [4] of 11.1 µM and a GI50 [6] of 28.7 µM. For the same compound, the GI50 [26] was 14.2 µM, the GI50 [7] was 5.06 µM and the GI50 [39] was 90.9 µM. It also gave a GI50 [10] of 10.3 µM, a GI50 [11] of 47.5 µM and a GI50 [15] of 33.5 µM. For the same compound, the GI50 [19] was 1.08 µM, the TGI [19] was 38.1 µM and the GI50 [53] was 50 µM. The GI50 [20] was 12.6 µM and the GI50 [56] was 40.9 µM.
